Test results reported in patent US6521665B1, “Method of treating insulin resistance” (priority 2001, dated 2003).
Like-named read-outs stand apart in the source and are kept apart here.

How the values were obtained:
[1] = test system: streptozotocin-induced rats; conditions: for Mean plasma FFA / Mean plasma insulin / Mean serum glucose: experimental rats, 5 mg per kg s.c. daily for 7 days
Procedure: Animals. Male albino Wistar rats 8-10 weeks of age 200-250 grams of body weight were used. The rats were housed at the temperature of 18±21° C. on a 12 hour light-dark cycle. Rats were fed on a stock laboratory diet (59% carbohydrates; 17% protein; 3% fat; 21% minerals, water, cellulose) and allowed water ad libitum. The streptozotocin (Sigma, St. Louis, Mo., USA) solved in citrate buffer (0.05M, pH 5.5) was injected into tail vein of male albino Wistar rats in a dose of 35 mg per kg of animal body weight to induce decompensated insulin resistance. The rats with levels of glucose more than 14.0 mmol/l were used in the experiment one week after the streptozotocin injection.
(§1) Assays. Plasma free fatty acids levels were determined by enzymatic method with a commercially available kit (Waho Chemicals Gmbh, Neuss, Germany) with Multistat 3 centrifugal analyzer (Instrumentation Laboratories, Lexington, USA).
(§2) Serum glucose concentrations were determined by the glucose oxidase method with a kit (Lachema, Slov.) with glucose analyzer (Beckman, Fullerton, Calif., USA).
(§3) Plasma insulin concentrations were determined by a double-antibody radioimmunoassay kit (Kabi Pharmacia Diagnostics, Uppsala, Sweden) using a rat insulin standard (Novo Research Institute, Bagsvard, Denmark).
Procedure. Streptozotocin-induced rats were assigned to two groups: a control rats (six rats) and experimental rats (fifteen rats). Experimental rats received daily injection (subcutaneously, 0.5 ml at 09.00 h) of water solution of succinic acid disodium salt hexahydrate in a dose of 5 mg per kg of body weight for period of 7 days.
Plasma free fatty acid levels (FFA), plasma Insulin levels and serum glucose levels were measured in rats by tail clipping method at zero day (before treatment), at third, fifth and seventh days (treatment period), and at tenth, fifteen, twentieth, twenty fifth and thirtieth days (after-treatment period).

healthy rats = conditions: no changes during thirty days of the experiment
Procedure: as §1, §2, §3

[2] = test system: non-insulin dependent diabetic humans; conditions: for Mean plasma FFA / Mean plasma High Density Lipoprotein cholesterol (HDL) / Mean plasma Low Density Lipoprotein cholesterol (LDL) / Mean plasma Triglycerides / Mean plasma insulin / Mean serum glucose: NIDDM humans, orally 200 mg to 400 mg per day for 3 to 7 days
From the text: Patients. Twelve non-insulin dependent diabetic humans were studied. Non-insulin Dependent Diabetes Mellitus (NIDDM) was diagnosed in the humans according to the World Health Organisation criteria and had been presented for minimum 5 years. The NIDDM humans were metabolically stable and had glucose levels more than 12.8 mmol/l. Six patients were taking oral sulphonylurea hypoglicemic drug glibenclamide (rec. INN). None of the humans were undergoing hypolipidemic therapy. The humans had no additive metabolic disorders.
Assays. Assays were used as described in the example 1 of the invention. Plasma insulin concentrations were determined by a double-antibody radioimmunoassay kit (Kabi Pharmacia Diagnostics, Uppsala, Sweden).
Procedure. Pharmaceutical grade succinic acid in a unit dosage form of 100 mg per gelatin capsule was used. All patients received succinic acid orally in daily dose of 200 mg to 400 mg per day for period of 3 to 7 days.
Plasma free fatty acid levels, insulin levels and serum glucose levels, plasma high density lipoprotein cholesterol (HDL-cholesterol), low density lipoprotein cholesterol (LDL-cholesterol) and triglycerides were measured in humans at zero day (before treatment ), at third and fifth days (treatment period), and at tenth, fifteen twentieth, twenty fifth thirtieth and fortieth days (after-treatment period).

pancreatic islets = conditions: MacDonald, Fahien, Diabetes 37(7): 997-999 (1988); cited from earlier work
[3] = day 10 (after-treatment period)
[4] = day 15 (after-treatment period)
[5] = day 20 (after-treatment period)
[6] = day 25 (after-treatment period)
[7] = day 30 (after-treatment period)
[8] = day 10 (after treatment period)
[9] = day 15 (after treatment period)
[10] = day 20 (after treatment period)
[11] = day 25 (after treatment period)
[12] = day 30 (after treatment period)
[13] = day 40 (after treatment period)
[14] = day 40 (after-treatment period)

Question: For `O.O.O.O.O.O.O=C([O-])CCC(=O)[O-].[Na+].[Na+]` [succinic acid disodium salt hexahydrate], which “Mean plasma FFA” value ([1]; day 0 (before treatment)) is on record?
Answer: 0.35 ± 0.03 mmol/L

Question: And the Mean plasma insulin ([1]; day 0 (before treatment))?
Answer: 11.0 ± 0.7 ng/mL

Question: And the Mean serum glucose ([1]; day 0 (before treatment))?
Answer: 15.7 ± 2.6 mmol/L

Question: And the “Mean plasma FFA” value ([1]; day 3 (treatment period))?
Answer: 0.32 ± 0.04 mmol/L

Question: What about the Mean plasma insulin ([1]; day 3 (treatment period)) of the same compound?
Answer: 10.2 ± 1.1 ng/mL

Question: What about the Mean serum glucose ([1]; day 3 (treatment period)) of the same compound?
Answer: 15.8 ± 3.1 mmol/L

Question: And the “Mean plasma FFA” value ([1]; day 5 (treatment period))?
Answer: 0.25 ± 0.06 mmol/L

Question: And the Mean plasma insulin ([1]; day 5 (treatment period))?
Answer: 7.4 ± 0.8 ng/mL

Question: What about the Mean serum glucose ([1]; day 5 (treatment period)) of the same compound?
Answer: 13.0 ± 2.4 mmol/L

Question: What about the “Mean plasma FFA” value ([1]; day 7 (treatment period)) of the same compound?
Answer: 0.18 ± 0.05 mmol/L

Question: And the Mean plasma insulin ([1]; day 7 (treatment period))?
Answer: 4.2 ± 0.7 ng/mL

Question: And the Mean serum glucose ([1]; day 7 (treatment period))?
Answer: 10.0 ± 1.2 mmol/L

Question: And the “Mean plasma FFA” value [1, 3]?
Answer: 0.20 ± 0.06 mmol/L

Question: What about the Mean plasma insulin [1, 3] of the same compound?
Answer: 3.1 ± 0.8 ng/mL

Question: And the Mean serum glucose [1, 3]?
Answer: 10.1 ± 2.0 mmol/L

Question: What about the “Mean plasma FFA” value [1, 4] of the same compound?
Answer: 0.15 ± 0.03 mmol/L

Question: And the Mean plasma insulin [1, 4]?
Answer: 2.4 ± 0.4 ng/mL

Question: And the Mean serum glucose [1, 4]?
Answer: 8.1 ± 1.1 mmol/L

Question: What about the “Mean plasma FFA” value [1, 5] of the same compound?
Answer: 0.10 ± 0.05 mmol/L

Question: And the Mean plasma insulin [1, 5]?
Answer: 2.1 ± 0.4 ng/mL

Question: What about the Mean serum glucose [1, 5] of the same compound?
Answer: 6.6 ± 0.8 mmol/L

Question: What about the “Mean plasma FFA” value [1, 6] of the same compound?
Answer: 0.11 ± 0.04 mmol/L

Question: And the Mean plasma insulin [1, 6]?
Answer: 2.0 ± 0.3 ng/mL

Question: And the Mean serum glucose [1, 6]?
Answer: 5.7 ± 0.5 mmol/L

Question: What about the “Mean plasma FFA” value [1, 7] of the same compound?
Answer: 0.13 ± 0.04 mmol/L

Question: What about the Mean plasma insulin [1, 7] of the same compound?
Answer: 2.1 ± 0.3 ng/mL

Question: And the Mean serum glucose [1, 7]?
Answer: 5.4 ± 0.7 mmol/L

Question: And the insulin sensitivity ([1]; insulin resistant rats in comparison with control insulin resistant rats, maximal efficacy in the after-treatment period)?
Answer: significant improving in insulin sensitivity

Question: And the “plasma free fatty acid levels” value (healthy rats)?
Answer: 0.08 ± 0.03 mmol/L

Question: And the plasma insulin levels (healthy rats)?
Answer: 3.4 ± 0.6 ng/mL

Question: What about the serum glucose (healthy rats) of the same compound?
Answer: 4.8 ± 0.4 mmol/L

Question: With `O=C(O)CCC(=O)O` [succinic acid] as the compound, how does the “Mean plasma FFA” value ([2]; day 0 (before treatment)) read?
Answer: 0.240 ± 0.044 mmol/L

Question: What about the “Mean plasma High Density Lipoprotein cholesterol (HDL)” value ([2]; day 0 (before treatment)) of the same compound?
Answer: 0.6 ± 0.4 mmol/L

Question: And the “Mean plasma Low Density Lipoprotein cholesterol (LDL)” value ([2]; day 0 (before treatment))?
Answer: 4.8 ± 0.3 mmol/L

Question: And the “Mean plasma Triglycerides” value ([2]; day 0 (before treatment))?
Answer: 2.7 ± 0.3 mmol/L

Question: What about the Mean plasma insulin ([2]; day 0 (before treatment)) of the same compound?
Answer: 140 ± 23 pmol/L

Question: What about the Mean serum glucose ([2]; day 0 (before treatment)) of the same compound?
Answer: 14.8 ± 1.4 mmol/L

Question: And the “Mean plasma FFA” value ([2]; day 3 (treatment period))?
Answer: 0.250 ± 0.071 mmol/L

Question: And the “Mean plasma High Density Lipoprotein cholesterol (HDL)” value ([2]; day 3 (treatment period))?
Answer: 0.7 ± 0.2 mmol/L

Question: What about the “Mean plasma Low Density Lipoprotein cholesterol (LDL)” value ([2]; day 3 (treatment period)) of the same compound?
Answer: 4.9 ± 0.4 mmol/L

Question: What about the “Mean plasma Triglycerides” value ([2]; day 3 (treatment period)) of the same compound?
Answer: 2.8 ± 0.6 mmol/L

Question: What about the Mean serum glucose ([2]; day 3 (treatment period)) of the same compound?
Answer: 14.5 ± 1.4 mmol/L

Question: And the “Mean plasma FFA” value ([2]; day 5 (treatment period))?
Answer: 0.195 ± 0.064 mmol/L

Question: What about the “Mean plasma High Density Lipoprotein cholesterol (HDL)” value ([2]; day 5 (treatment period)) of the same compound?
Answer: 0.8 ± 0.2 mmol/L

Question: And the “Mean plasma Low Density Lipoprotein cholesterol (LDL)” value ([2]; day 5 (treatment period))?
Answer: 4.7 ± 0.2 mmol/L

Question: And the “Mean plasma Triglycerides” value ([2]; day 5 (treatment period))?
Answer: 2.7 ± 0.3 mmol/L

Question: And the Mean serum glucose ([2]; day 5 (treatment period))?
Answer: 14.9 ± 1.5 mmol/L

Question: What about the “Mean plasma High Density Lipoprotein cholesterol (HDL)” value [2, 8] of the same compound?
Answer: 1.2 ± 0.4 mmol/L

Question: What about the “Mean plasma Low Density Lipoprotein cholesterol (LDL)” value [2, 8] of the same compound?
Answer: 4.3 ± 0.6 mmol/L

Question: And the “Mean plasma Triglycerides” value [2, 8]?
Answer: 2.5 ± 0.3 mmol/L

Question: And the “Mean plasma FFA” value [2, 3]?
Answer: 0.184 ± 0.035 mmol/L

Question: And the Mean plasma insulin [2, 3]?
Answer: 134 ± 27 pmol/L

Question: What about the Mean serum glucose [2, 3] of the same compound?
Answer: 13.0 ± 2.0 mmol/L

Question: And the “Mean plasma High Density Lipoprotein cholesterol (HDL)” value [2, 9]?
Answer: 1.2 ± 0.3 mmol/L

Question: What about the “Mean plasma Low Density Lipoprotein cholesterol (LDL)” value [2, 9] of the same compound?
Answer: 4.0 ± 0.3 mmol/L

Question: And the “Mean plasma Triglycerides” value [2, 9]?
Answer: 2.4 ± 0.4 mmol/L

Question: And the “Mean plasma FFA” value [2, 4]?
Answer: 0.157 ± 0.032 mmol/L

Question: And the Mean serum glucose [2, 4]?
Answer: 13.1 ± 0.8 mmol/L

Question: And the “Mean plasma High Density Lipoprotein cholesterol (HDL)” value [2, 10]?
Answer: 1.2 ± 0.4 mmol/L

Question: And the “Mean plasma Low Density Lipoprotein cholesterol (LDL)” value [2, 10]?
Answer: 3.5 ± 0.4 mmol/L

Question: What about the “Mean plasma Triglycerides” value [2, 10] of the same compound?
Answer: 1.8 ± 0.4 mmol/L

Question: What about the “Mean plasma FFA” value [2, 5] of the same compound?
Answer: 0.161 ± 0.034 mmol/L

Question: And the Mean plasma insulin [2, 5]?
Answer: 124 ± 17 pmol/L

Question: And the Mean serum glucose [2, 5]?
Answer: 11.0 ± 1.0 mmol/L

Question: And the “Mean plasma High Density Lipoprotein cholesterol (HDL)” value [2, 11]?
Answer: 1.3 ± 0.2 mmol/L

Question: And the “Mean plasma Low Density Lipoprotein cholesterol (LDL)” value [2, 11]?
Answer: 3.4 ± 0.3 mmol/L

Question: And the “Mean plasma Triglycerides” value [2, 11]?
Answer: 1.3 ± 0.2 mmol/L

Question: What about the “Mean plasma FFA” value [2, 6] of the same compound?
Answer: 0.113 ± 0.046 mmol/L

Question: What about the Mean serum glucose [2, 6] of the same compound?
Answer: 9.4 ± 1.3 mmol/L

Question: What about the “Mean plasma High Density Lipoprotein cholesterol (HDL)” value [2, 12] of the same compound?
Answer: 1.5 ± 0.2 mmol/L

Question: And the “Mean plasma Low Density Lipoprotein cholesterol (LDL)” value [2, 12]?
Answer: 3.4 ± 0.2 mmol/L

Question: What about the “Mean plasma Triglycerides” value [2, 12] of the same compound?
Answer: 1.1 ± 0.1 mmol/L

Question: And the “Mean plasma FFA” value [2, 7]?
Answer: 0.086 ± 0.035 mmol/L

Question: What about the Mean plasma insulin [2, 7] of the same compound?
Answer: 118 ± 21 pmol/L

Question: What about the Mean serum glucose [2, 7] of the same compound?
Answer: 7.1 ± 0.6 mmol/L

Question: And the “Mean plasma High Density Lipoprotein cholesterol (HDL)” value [2, 13]?
Answer: 1.3 ± 0.2 mmol/L

Question: And the “Mean plasma Low Density Lipoprotein cholesterol (LDL)” value [2, 13]?
Answer: 3.5 ± 0.4 mmol/L

Question: And the “Mean plasma Triglycerides” value [2, 13]?
Answer: 1.4 ± 0.2 mmol/L

Question: And the “Mean plasma FFA” value [2, 14]?
Answer: 0.100 ± 0.022 mmol/L

Question: And the Mean plasma insulin [2, 14]?
Answer: 112 ± 14 pmol/L

Question: What about the Mean serum glucose [2, 14] of the same compound?
Answer: 5.8 ± 1.1 mmol/L

Question: What about the “change of plasma triglycerides, LDL cholesterol and HDL cholesterol” value ([2]; non-insulin dependent diabetic humans, especially in the after-treatment period) of the same compound?
Answer: reducing plasma triglycerides and low density lipoprotein cholesterol, and increasing plasma high density lipoprotein cholesterol

Question: What about the insulin sensitivity ([2]; non-insulin dependent diabetic humans, maximal efficacy in the after-treatment period) of the same compound?
Answer: improving in insulin sensitivity

Question: What about the insulin release (pancreatic islets) of the same compound?
Answer: did not stimulate insulin release
